Read-outs that look alike come from different tables or passages of the source.
Assays:
[1] = system: HeLa cells; assay: Cytotoxicity in HeLa cells, ATP content (ATPlite kit); format: cell-based; conditions: HeLa cells, three days incubation, ATP content
Protocol: (§1) Black 96-well clear-bottom microtiter plates (Corning, Amsterdam, The Netherlands) were filled in duplicate using a customized robot system with serial 4-fold dilutions of compound in a final volume of 50 μl culture medium [RPMI medium without phenol red, 10% FBS, 0.04% gentamycin (50 mg/mL) and 0.5% DMSO]. Then, 100 μl of a HeLa cell suspension (5×10^4 cells/mL) in culture medium was added to each well followed by the addition of 50 μl rgRSV224 (MOI=0.02) virus in culture medium using a multidrop dispenser (Thermo Scientific, Erembodegem, Belgium). rgRSV224 virus is an engineered virus that includes an additional GFP gene (Hallak et al, 2000) and was in-licensed from the NIH (Bethesda, Md., USA). Medium, virus- and mock-infected controls were included in each test. Cells were incubated at 37° C. in a 5% CO2 atmosphere. Three days post-virus exposure, viral replication was quantified by measuring GFP expression in the cells by a MSM laser microscope (Tibotec, Beerse, Belgium). The EC50 was defined as the 50% inhibitory concentration for GFP expression. In parallel, compounds were incubated for three days in a set of white 96-well microtitier plates (Corning) and the cytotoxicity of compounds in HeLa cells was determined by measuring the ATP content of the cells using the ATPlite kit (PerkinElmer, Zaventem, Belgium) according to the manufacturer's instructions. The CC50 was defined as the 50% concentration for cytotoxicity.

[2] = system: rgRSV224 virus; assay: microbe, parasite or virus in culture; format: cell-based, respiratory syncytial virus (RSV); conditions: for SI CC50/EC50: ratio of CC50 (HeLa cytotoxicity) to EC50 (RSV)
Protocol: as §1

[3] = human respiratory syncytial virus, HeLa, 72 h, read-out: RSV-wt_EC50
[4] = human respiratory syncytial virus, HeLa, 72 h, read-out: WT activity EC50
[5] = rgRSV224 in HeLa cells, three days post-virus exposure, GFP expression, read-out: WT activity EC50

SMILES	TOX-HELA_EC50 [1] [µM]	EC50 [2, 3] [nM]	EC50 [2, 4] [nM]	SI CC50/EC50 [2]	EC50 [2, 5] [nM]
CC(C)CCn1c(Cn2c(=O)n(C3CC3)c3ccncc32)nc2nc(Cl)ccc21 [Compound 1, 3-((5-chloro-1-isopentyl-1H-imidazo[4,5-b]pyridin-2-yl)methyl)-1-cyclopropyl-1H-imidazo[4,5-c]pyridin-2(3H)-one]	>9.836	0.365			
CC(C)CCn1c(Cn2c(=O)n(C3COC3)c3ccncc32)nc2nc(Cl)ccc21 [Compound 2, 3-((5-chloro-1-isopentyl-1H-imidazo[4,5-b]pyridin-2-yl)methyl)-1-(oxetan-3-yl)-1H-imidazo[4,5-c]pyridin-2(3H)-one]	>9.836	1.58			
CC(C)(C)C(=O)OCCCCn1c(Cn2c(=O)n(C3CC3)c3ccncc32)nc2nc(Cl)ccc21 [Compound 3, 4-(5-chloro-2-((1-cyclopropyl-2-oxo-1H-imidazo[4,5-c]pyridin-3(2H)-yl)methyl)-1H-imidazo[4,5-b]pyridin-1yl)butyl pivalate]	>9.836	3.29			
CC(C)CCn1c(Cn2c(=O)n(C3CC3)c3ccccc32)nc2ncccc21 [Compound 4, 1-cyclopropyl-3-((1-isopentyl-1H-imidazo[4,5-b]pyridin-2-yl)methyl)-1H-benzo[d]imidazol-2(3H)-one]	>9.836	7.08			
CC(C)CCn1c(Cn2c(=O)n(C3CC3)c3ccncc32)nc2ncccc21 [Compound 5, 1-cyclopropyl-3-((1-isopentyl-1H-imidazo[4,5-b]pyridin-2-yl)methyl)-1H-imidazo[4,5-c]pyridin-2(3H)-one]	>98.3603	8.67			
CC(C)CCn1c(Cn2c(=O)n(C3CC3)c3ccc(F)cc32)nc2nc(Cl)ccc21 [Compound 6, 3-((5-chloro-1-isopentyl-1H-imidazo[4,5-b]pyridin-2-yl)methyl)-1-cyclopropyl-5-fluoro-1H-benzo[d]imidazol-2(3H)-one]	>9.836	8.67			
CS(=O)(=O)CCCn1c(Cn2c(=O)n(C3CC3)c3ccncc32)nc2ncccc21 [Compound 7, 1-cyclopropyl-3-((1-(3-(methylsulfonyl)propyl)-1H-imidazo[4,5-b]pyridin-2-yl)methyl)-1H-imidazo[4,5-c]pyridin-2(3H)-one]	>9.836	13.7			
CC(C)CCn1c(Cn2c(=O)n(C3CC3)c3ccc(F)cc32)nc2ncccc21 [Compound 8, 1-cyclopropyl-5-fluoro-3-((1-isopentyl-1H-imidazo[4,5-b]pyridin-2-yl)methyl)-1H-benzo[d]imidazol-2(3H)-one]	>9.836	15.9			
CC(C)CCn1c(Cn2c(=O)n(C3CC3)c3ccccc32)nc2cc(Br)cnc21 [Compound 30, 1-((6-bromo-3-isopentyl-3H-imidazo[4,5-b]pyridin-2-yl)methyl)-3-cyclopropyl-1H-benzo[d]imidazol-2(3H)-one]	>9.84				
O=c1n(Cc2nc3ncccc3n2CCCC(F)F)c2cnccc2n1C1CC1 [Compound 43, 1-cyclopropyl-3-((1-(4,4-difluorobutyl)-1H-imidazo[4,5-b]pyridin-2-yl)methyl)-1H-imidazo[4,5-c]pyridin-2(3H)-one]			7.91	7161	
N#CCCCn1c(Cn2c(=O)n(C3CC3)c3ccncc32)nc2ccc(Cl)nc21 [Compound 49]			1450	>68	
COC(=O)c1nccc2c1n(Cc1nc3nc(Cl)ccc3n1CCCCO)c(=O)n2C1CC1 [Compound 62]			294	>339	
CC(=O)OCCCCn1c(Cn2c(=O)n(C3CC3)c3ccncc32)nc2nc(Cl)ccc21 [Compound 64]				>18058	5.54
CC(C)C(=O)OCCCCn1c(Cn2c(=O)n(C3CC3)c3ccncc32)nc2nc(Cl)ccc21 [Compound 65]				>18110	5.52
O=C1c2ccccc2C(=O)N1CCCCn1c(Cn2c(=O)n(C3CC3)c3ccncc32)nc2nc(Cl)ccc21 [Compound 66]				>16939	5.9
CC(O)CCCn1c(Cn2c(=O)n(C3CC3)c3ccncc32)nc2nc(Cl)ccc21 (centres unmarked) [Compound 67, 3-{[5-chloro-1-(4-hydroxypentyl)-1H-imidazo[4,5-b]pyridin-2-yl]methyl}-1-cyclopropyl-1,3-dihydro-2H-imidazo[4,5-c]pyridin-2-one]			7.91	>12643	
COC(=O)NCCCCn1c(Cn2c(=O)n(C3CC3)c3ccncc32)nc2nc(Cl)ccc21 [Compound 68]				>12208	8.19
O=c1n(Cc2nc3nc(F)ccc3n2CCCC(F)(F)F)c2cnccc2n1C1CC1 [Compound 69]				>1318	75.8
O=c1n(Cc2nc3ncccc3n2CCCOC(F)(F)F)c2cnccc2n1C1CC1 [Compound 70]				>9116	11
O=c1n(Cc2nc3nc(Cl)ccc3n2CCCC(F)(F)F)c2cnccc2n1CC(F)(F)F [Compound 71]				>108383	0.923
O=c1n(Cc2nc3ncccc3n2CCCC(F)(F)F)c2cnccc2n1CC(F)(F)F [Compound 72]				>2766	3.61

SMILES	TOX-HELA_EC50 [1] [µM]	EC50 [2, 3] [nM]	EC50 [2, 4] [nM]	SI CC50/EC50 [2]	EC50 [2, 5] [nM]
NC(=O)NCCCCn1c(Cn2c(=O)n(C3CC3)c3ccncc32)nc2nc(Cl)ccc21 [Compound 74]				>1997	5.01
CC(C)(O)CCCn1c(Cn2c(=O)n(C3CC3)c3ccncc32)nc2nc(Cl)ccc21 [Compound 75, 3-((5-chloro-1-(4-hydroxy-4-methylpentyl)-1H-imidazo[4,5-b]pyridin-2-yl)methyl)-1-cyclopropyl-1H-imidazo[4,5-c]pyridin-2 (3H)-one]			1.58	>63325	
O=C(NCCCCn1c(Cn2c(=O)n(C3CC3)c3ccncc32)nc2nc(Cl)ccc21)OCCF [Compound 76]				>24518	4.08
O=C(NC1CCCC1)OCCCCn1c(Cn2c(=O)n(C3CC3)c3ccncc32)nc2nc(Cl)ccc21 [Compound 78]				14406	5.73
COc1ccc(NC(=O)OCCCCn2c(Cn3c(=O)n(C4CC4)c4ccncc43)nc3nc(Cl)ccc32)cc1 [Compound 79]				1711	23.3
CC1=C(NCCCCn2c(Cn3c(=O)n(C4CC4)c4ccncc43)nc3nc(Cl)ccc32)c2ccccc2S1(=O)=O [Compound 80]				>9628	10.4
CC(C)OC(=O)NCCCCn1c(Cn2c(=O)n(C3CC3)c3ccncc32)nc2ncccc21 [Compound 81]				>1380	72.4
O=C(NCCCCn1c(Cn2c(=O)n(C3CC3)c3ccncc32)nc2nc(Cl)ccc21)OC1CCCC1 [Compound 82]				5649	17.1
O=C(Nc1ccc(F)cc1C(F)(F)F)OCCCCn1c(Cn2c(=O)n(C3CC3)c3ccncc32)nc2nc(Cl)ccc21 [Compound 83]				4731	14
O=C(Nc1ccc(F)c(Cl)c1)OCCCCn1c(Cn2c(=O)n(C3CC3)c3ccncc32)nc2nc(Cl)ccc21 [Compound 84]				354	18.9
O=c1n(Cc2nc3ncccc3n2CCCCF)c2cnccc2n1CC(F)(F)F [Compound 85]				1436	8.54
O=C(Nc1ccc(Cl)cc1)OCCCCn1c(Cn2c(=O)n(C3CC3)c3ccncc32)nc2nc(Cl)ccc21 [Compound 86]				263	36.8
O=c1n(Cc2nc3nc(Cl)ccc3n2CCCC(F)(F)F)c2cc(F)ccc2n1CC(F)(F)F [Compound 87]				>49069	2.04
CC(C)(CO)CCn1c(Cn2c(=O)n(C3CC3)c3ccncc32)nc2nc(Cl)ccc21 [Compound 88]				>4517	11.1
O=c1n(Cc2nc3ncccc3n2CCCC(F)(F)F)c2cc(F)ccc2n1CC(F)(F)F [Compound 89]				>2037	49.1
CC(C)CCn1c(Cn2c(=O)n(CC(F)(F)F)c3ccncc32)nc2nc(Cl)ccc21 [Compound 90]				36156	2.6
O=c1n(Cc2nc3ncccc3n2CCCc2ccccc2)c2cnccc2n1C1CC1 [Compound 91]				>8223	12.2
CC(C)CCn1c(Cn2c(=O)n(CC(F)(F)F)c3ccc(F)cc32)nc2nc(Cl)ccc21 [Compound 92]				13572	6.72
O=c1n(Cc2nc3ncccc3n2CCCc2ccccc2)c2cc(F)ccc2n1C1CC1 [Compound 93]				>3176	31.5
O=c1n(Cc2nc3ncccc3n2CCCc2ccccn2)c2cnccc2n1C1CC1 [Compound 94]				>748	126
CC(C)CCn1c(Cn2c(=O)n(C3CC3)c3ccncc32)nc2nc(C(=N)N)ccc21 [Compound 105]			0.316	>330179	

Source: US9321767B2, “Azabenzimidazoles as respiratory syncytial virus antiviral agents” (JANSSEN SCIENCES IRELAND UC, priority 2010, dated 2016)
